Assays:
Format in all cases: cell-based
[1] = test system: Dendritic cells + T cells + CD3/CD28 beads; assay: CRS assay: Cell Titer Glo compound cytotoxicity; details: Homo sapiens, luminescence of the remaining culture, read-out: Cell Titer Glo 2 EC50
Description: (§1) Human PBMC cells (PPA Research Group, Cat No. 15-00021); RPMI media 10% FBS; GMCSF (Peprotech, Cat No. 300-03) and IL4 (Peprotech Cat No. 200-04); White clear bottom 96 well plates (Fisher, Cat No. 07-200-587, Corning #3903); Human IL-2 DuoSet ELISA (R&D Systems, Cat No. DY202); Human IL-6 DuoSet ELISA (R&D Systems, Cat No. DY206); Cell Titer Glo reagent (Promega, Cat No. G7573); Dynabeads Human T-Activator CD3/CD28 (Fisher, Cat No. 111.61D); Anti-human CD3 (BD Biosciences, Cat No. 555336); CD28, Clone CD28.2 (Beckman Coulter Inc. Cat No. IM1376); Recombinant Human IL-2 Protein (R&D Systems, Cat No. 202-IL-500).
After 4 days, the dendritic cells were harvested by spinning down (1000 rpm/10 min) and aspirating the media. After resuspending the cells in fresh RPMI media (10% FBS), the cells were plated (25K/well in 50 μl) onto a white clear bottom 96 well plate. […] of RPMI media containing 2× concentrated test compound was added per well to the above cell-culture media (final concentration becomes 1×) and the plates were pre-incubated for 1 hour at 37° C. […]
(§2) After incubation, 80 μl of the supernatant was harvested from each well for IL6 ELISA and 80 μl of the supernatant for IL2 ELISA. […] The plate was read for luminescence intensity to determine the compound cytotoxicity.

[2] = test system: Dendritic cells + T cells + CD3/CD28 beads; assay: CRS assay: dendritic cells + T cells + CD3/CD28 beads, IL6 ELISA; details: human PBMC-derived dendritic cells, 1 hour compound pre-incubation, overnight with T cells and CD3/CD28 beads; IL-6 primarily produced by the dendritic cells
[3] = test system: Dendritic cells + T cells + CD3/CD28 beads; assay: CRS assay: dendritic cells + T cells + CD3/CD28 beads, IL2 ELISA; details: Homo sapiens; same culture; IL-2 only produced by the activated T cells
Description: as §1
Human peripheral blood mononuclear cells (PBMC) (400 million) obtained from the vendor were transferred into three T-175 flasks containing 16 ml RPMI media (10% fetal bovine serum (FBS)) and incubated for 2 hours at 37° C. After 2 hours, floating PBL was removed and the cell was rinsed twice with 10 ml of media. The PBL and media was saved for T cell expansion. 16 ml of fresh RPMI media (10% FBS) containing Granulocyte Macrophage Colony—Stimulating Factor (GMCSF) (100 ng/ml) and IL4 (20 ng/ml) was added and the flask was kept in a 37° C. incubator. […]
as §2

| Structure (SMILES) | EC50 [1] [µM] | EC50 [2] [µM] | EC50 [3] [µM] |
| --- | --- | --- | --- |
| COc1cc(Nc2ncc(C)c(Nc3ccc4oc(=O)[nH]c4c3)n2)cc(C)c1F [Compound I-432, 5-(2-(4-fluoro-3-methoxy-5-methylphenylamino)-5-methylpyrimidin-4-ylamino)benzo[d]oxazol-2(3H)-one] | 4.55 | 0.052 | 4.41 |
| CCO[C@H]1CC[C@H](n2cc(NC(=O)c3csc(-c4cn[nH]c4)n3)c(-c3nc(F)ccc3F)n2)CC1 [VI-176, N-(3-(3,6-difluoropyridin-2-yl)-1-((1r,4r)-4-ethoxycyclohexyl)-1H-pyrazol-4-yl)-2-(1H-pyrazol-4-yl)thiazole-4-carboxamide] | 12 | 0.195 | 6.9 |
